The nature of assay [1]: A cytotoxicity screen of small molecule inhibitors of the PhoP region in Salmonella typhi identified in the primary screen. [Related pubchem assays: 1850, 1864, 1985 ]. It is filed as functional.
Assay [2] deals with Eukaryotic translation initiation factor 4H (Homo sapiens, UniProt Q15056). The assay is described as follows: human eIF4H binding inhibitors, primary screen, translation initiation inhibitor project, biochemical, uHTS, fluorescence polarization (AID 2012). Background: Polarisation of emitted light reports the rotation of a fluorescent probe.
Assay [3] has as its target Polyadenylate-binding protein 1 (Homo sapiens, UniProt P11940). In words: PABP poly(A) RNA binding inhibitors, primary screen, biochemical, fluorescence polarization, uHTS (AID 2014).
For assay [4], the target named is DNA dC->dU-editing enzyme APOBEC-3A (Homo sapiens, UniProt P31941). The assay is described as follows: Dose Response confirmation of small molecule APOBEC3A DNA Deaminase Inhibitors via a fluorescence-based single-stranded DNA deaminase assay. [Related pubchem assays (depositor defined):AID493011, AID493024]. It is filed as functional.
Assay [5] deals with DNA dC->dU-editing enzyme APOBEC-3G (Homo sapiens, UniProt Q9HC16). It is filed as functional.
The nature of assay [6]: cytotoxicity in HPDE-C7 cells, cell-based, fluorescence, HTS (AID 430). It is filed as functional. The note with it: Homo sapiens.
A short description of assay [7]: cytotoxicity in KRAS-transformed pancreatic duct cells, primary screen, cell-based, fluorescence, HTS (AID 431).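 Note: cell line used: HPDE-C7K.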 As to conditions: Homo sapiens. The format is functional.
The nature of assay [8]: Luminescence Cell-Based Dose Retest to Confirm Inhibitors of Cancer Stem Cells. [Related pubchem assays (depositor defined):AID2717, AID2721]. The format is functional. As to conditions: Homo sapiens.
The target in assay [9] is Glyceraldehyde-3-phosphate dehydrogenase (Homo sapiens, UniProt P04406).
Assay [10] deals with T1, Alkaline phosphatase, tissue-nonspecific isozyme (Homo sapiens, UniProt P05186).
T1 sequence (P05186 whole entry): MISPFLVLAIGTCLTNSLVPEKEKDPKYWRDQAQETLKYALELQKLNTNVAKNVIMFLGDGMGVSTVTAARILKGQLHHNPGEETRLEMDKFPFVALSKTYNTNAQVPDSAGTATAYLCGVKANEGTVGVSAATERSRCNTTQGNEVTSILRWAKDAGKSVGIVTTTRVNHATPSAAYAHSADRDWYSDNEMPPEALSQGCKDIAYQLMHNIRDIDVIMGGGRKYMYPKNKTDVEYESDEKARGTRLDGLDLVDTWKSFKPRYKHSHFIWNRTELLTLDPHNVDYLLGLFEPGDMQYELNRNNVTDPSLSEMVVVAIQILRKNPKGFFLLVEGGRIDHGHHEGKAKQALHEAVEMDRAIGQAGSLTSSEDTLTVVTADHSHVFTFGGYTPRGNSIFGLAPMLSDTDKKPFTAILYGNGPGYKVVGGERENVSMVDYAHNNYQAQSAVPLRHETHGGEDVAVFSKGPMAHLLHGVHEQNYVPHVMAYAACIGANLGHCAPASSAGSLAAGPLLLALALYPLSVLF
The assay is described as follows: human TNAP enzyme inhibitors, SAR follow-up, biochemical, luminescent, dose response (AID 1056).

Assay [11] concerns Streptococcus sp. 'group A'. The assay is described as follows: growth inhibition of control SK(-) GAS strain, dose response, counter-screen for streptokinase expression inhibitor project, luminescence, kanamycin, BacTiterGlo, confirmation (AID 1900). It is filed as functional, organism-based.
In another assay the test system is Streptococcus. In words: Group A Streptococcus viability loss, dose response, counter-screen for streptokinase expression inhibitor project, luminescence, BacTiterGlo (AID 1915).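 Note: potency for reduction of bacterial viability or growth.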 It is filed as functional, organism-based. For orientation: Counterscreens check selectivity or assay interference.
The target in assay [12] is Voltage-dependent T-type calcium channel subunit alpha-1H (Homo sapiens, UniProt O95180). The format is functional.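 Note: channel activity triggered by adding a high calcium stimulation buffer.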
The target in another assay is T2, Leucine aminopeptidase (Plasmodium falciparum 3D7, UniProt Q8IL11).
T2 sequence (Q8IL11 whole entry): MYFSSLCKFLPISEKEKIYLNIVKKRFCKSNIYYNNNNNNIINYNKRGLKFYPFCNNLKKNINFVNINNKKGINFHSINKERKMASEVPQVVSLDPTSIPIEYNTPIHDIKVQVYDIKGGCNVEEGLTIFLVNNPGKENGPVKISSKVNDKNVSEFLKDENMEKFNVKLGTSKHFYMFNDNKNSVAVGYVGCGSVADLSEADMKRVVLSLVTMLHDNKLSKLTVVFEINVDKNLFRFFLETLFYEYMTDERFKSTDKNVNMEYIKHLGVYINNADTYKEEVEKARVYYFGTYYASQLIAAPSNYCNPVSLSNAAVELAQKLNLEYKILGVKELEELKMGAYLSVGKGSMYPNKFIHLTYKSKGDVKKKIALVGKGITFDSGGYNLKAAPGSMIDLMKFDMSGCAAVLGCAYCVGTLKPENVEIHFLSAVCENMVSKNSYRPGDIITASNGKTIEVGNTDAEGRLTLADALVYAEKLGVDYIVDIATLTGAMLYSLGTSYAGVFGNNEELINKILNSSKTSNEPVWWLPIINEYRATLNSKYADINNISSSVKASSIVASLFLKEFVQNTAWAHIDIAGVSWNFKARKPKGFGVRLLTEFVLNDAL
In words: P. falciparum M17LAP inhibitors, primary screen, biochemical, fluorogenic H-Leu-NHMec substrate, 1536-well (AID 1619). It is filed as functional.

The target in a further assay is T3, Aspartyl aminopeptidase (Plasmodium falciparum 3D7, UniProt Q8I2J3).
T3 sequence (Q8I2J3 whole entry): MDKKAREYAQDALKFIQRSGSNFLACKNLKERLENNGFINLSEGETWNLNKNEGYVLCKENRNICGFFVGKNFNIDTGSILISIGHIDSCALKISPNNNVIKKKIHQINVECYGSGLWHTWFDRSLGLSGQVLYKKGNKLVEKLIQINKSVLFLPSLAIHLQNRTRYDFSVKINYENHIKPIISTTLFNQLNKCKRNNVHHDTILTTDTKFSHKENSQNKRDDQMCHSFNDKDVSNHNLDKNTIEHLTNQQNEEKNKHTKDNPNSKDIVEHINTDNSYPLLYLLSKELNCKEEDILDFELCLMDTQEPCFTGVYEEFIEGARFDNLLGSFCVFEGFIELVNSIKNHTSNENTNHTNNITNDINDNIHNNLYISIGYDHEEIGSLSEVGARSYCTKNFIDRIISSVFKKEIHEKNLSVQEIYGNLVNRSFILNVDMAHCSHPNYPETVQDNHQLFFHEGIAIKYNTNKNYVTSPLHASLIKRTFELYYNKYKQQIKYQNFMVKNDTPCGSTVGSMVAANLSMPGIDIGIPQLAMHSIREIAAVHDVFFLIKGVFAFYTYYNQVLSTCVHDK
The assay is described as follows: Counterscreen for inhibitors of M1 and M17 aminopeptidases: QFRET-based biochemical high throughput dose response assay for inhibitors of the Plasmodium falciparum M18 Aspartyl Aminopeptidase (PFM18AAP). [Related PubChem assays: 1619 (Screening assay (M17LAP inhibitors).), 1445 (Screening assay (M1AAP inhibitors).)].

For a further assay, the target named is Procathepsin L (Homo sapiens, UniProt P07711). The assay is described as follows: cathepsin L inhibitors, dose response, counter-screen for M1/M17 aminopeptidase inhibitor project, biochemical, QFRET, 1536-well (AID 2214).
The target of the next assay is Cytochrome P450 3A4 (Homo sapiens, UniProt P08684). The note with it: Potency.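 Note: confirmatory qHTS run detecting inhibitors and substrates of CYP3A4.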
Assay [13] concerns the target Alkaline phosphatase, placental type (Homo sapiens, UniProt P05187). The assay is described as follows: PLAP enzyme inhibitors, confirmation, biochemical, luminescence (AID 1512). It is filed as functional.
Assay [14] in a line: NIH-3T3 fibroblast cytotoxicity, dose response, cytotoxicity control, cell-based, fluorescence, Alamar Blue, secondary assay (AID 2327).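 Note: NIH-3T3 mouse fibroblasts cultured with fluconazole at 8 µg/mL.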 The format is functional.
Assay [15] can be described thus: C. albicans growth with fluconazole, confirmation, fluorescence, retest (AID 2467). The format is functional, cell-based.
The next assay can be described thus: cells. It is filed as functional.
The next assay has as its target Cytochrome P450 2C19 (Homo sapiens, UniProt P33261). The assay is described as follows: Cytochrome panel assay with activity outcomes. Panel member name: p450-cyp2c19 Compounds with AC50 equal or less than 10 uM are considered active. The format is functional. The note with it: read-out: AC50.
The next assay addresses Cytochrome P450 2D6 (Homo sapiens, UniProt P10635).
For another assay, the target named is Cytochrome P450 2C9 (Homo sapiens, UniProt P11712).

Molecules are shown by their SMILES. The source made the active and inactive calls. A value given as a limit tells only on which side of the number the result lay.

Polyadenylate-binding protein 1, sequence (P11940 whole entry): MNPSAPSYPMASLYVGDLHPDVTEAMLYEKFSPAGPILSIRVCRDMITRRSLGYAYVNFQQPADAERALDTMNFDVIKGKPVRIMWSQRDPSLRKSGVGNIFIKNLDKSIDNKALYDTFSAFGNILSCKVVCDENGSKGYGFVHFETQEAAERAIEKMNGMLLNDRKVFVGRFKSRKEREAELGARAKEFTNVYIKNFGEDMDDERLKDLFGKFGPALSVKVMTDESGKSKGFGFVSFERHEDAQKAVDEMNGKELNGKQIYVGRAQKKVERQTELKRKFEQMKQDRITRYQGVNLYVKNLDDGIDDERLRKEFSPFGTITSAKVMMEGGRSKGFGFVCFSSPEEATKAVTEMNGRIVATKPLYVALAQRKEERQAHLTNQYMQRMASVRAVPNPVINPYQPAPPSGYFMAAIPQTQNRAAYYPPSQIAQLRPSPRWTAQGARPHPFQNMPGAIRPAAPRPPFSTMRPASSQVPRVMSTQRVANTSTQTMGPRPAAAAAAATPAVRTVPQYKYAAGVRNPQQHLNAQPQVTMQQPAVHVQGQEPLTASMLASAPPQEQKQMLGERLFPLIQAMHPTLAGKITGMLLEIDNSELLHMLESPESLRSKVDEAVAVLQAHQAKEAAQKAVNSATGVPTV
DNA dC->dU-editing enzyme APOBEC-3G, sequence (Q9HC16 whole entry): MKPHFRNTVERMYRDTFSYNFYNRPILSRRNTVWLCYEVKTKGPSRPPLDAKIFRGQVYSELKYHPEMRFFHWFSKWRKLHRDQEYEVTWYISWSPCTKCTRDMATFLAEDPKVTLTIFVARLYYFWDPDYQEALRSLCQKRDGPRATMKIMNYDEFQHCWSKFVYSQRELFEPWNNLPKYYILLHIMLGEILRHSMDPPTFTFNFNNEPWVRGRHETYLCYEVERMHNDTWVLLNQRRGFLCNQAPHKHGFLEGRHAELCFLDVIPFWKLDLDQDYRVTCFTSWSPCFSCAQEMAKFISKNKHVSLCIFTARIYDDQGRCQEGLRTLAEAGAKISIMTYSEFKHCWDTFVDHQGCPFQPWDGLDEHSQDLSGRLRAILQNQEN
DNA dC->dU-editing enzyme APOBEC-3A, sequence (P31941 whole entry): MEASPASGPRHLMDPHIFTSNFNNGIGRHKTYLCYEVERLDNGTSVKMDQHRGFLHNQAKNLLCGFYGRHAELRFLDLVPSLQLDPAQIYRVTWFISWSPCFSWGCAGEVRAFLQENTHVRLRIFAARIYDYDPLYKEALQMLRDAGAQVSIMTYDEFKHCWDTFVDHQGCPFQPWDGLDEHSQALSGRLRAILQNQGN
Glyceraldehyde-3-phosphate dehydrogenase, sequence (P04406 whole entry): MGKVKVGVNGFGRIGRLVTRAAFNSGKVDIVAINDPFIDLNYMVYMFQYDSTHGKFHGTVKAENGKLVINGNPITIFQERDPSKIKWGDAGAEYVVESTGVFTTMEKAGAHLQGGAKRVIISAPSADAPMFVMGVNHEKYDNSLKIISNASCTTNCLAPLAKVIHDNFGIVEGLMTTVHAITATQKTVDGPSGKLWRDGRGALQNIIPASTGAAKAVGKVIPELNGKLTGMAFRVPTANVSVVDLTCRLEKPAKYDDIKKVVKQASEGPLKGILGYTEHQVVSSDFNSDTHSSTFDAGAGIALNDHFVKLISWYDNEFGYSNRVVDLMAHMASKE
Procathepsin L, sequence (P07711 whole entry): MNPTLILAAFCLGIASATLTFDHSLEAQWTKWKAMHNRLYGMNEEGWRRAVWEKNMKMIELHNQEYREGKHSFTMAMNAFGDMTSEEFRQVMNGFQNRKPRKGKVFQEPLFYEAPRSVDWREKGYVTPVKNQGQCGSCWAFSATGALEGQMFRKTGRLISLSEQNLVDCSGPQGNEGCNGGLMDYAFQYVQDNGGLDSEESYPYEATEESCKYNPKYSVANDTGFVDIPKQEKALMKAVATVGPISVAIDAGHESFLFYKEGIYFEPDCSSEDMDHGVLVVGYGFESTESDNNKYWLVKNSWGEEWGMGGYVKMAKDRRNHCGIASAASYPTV
Cytochrome P450 3A4, sequence (P08684 whole entry): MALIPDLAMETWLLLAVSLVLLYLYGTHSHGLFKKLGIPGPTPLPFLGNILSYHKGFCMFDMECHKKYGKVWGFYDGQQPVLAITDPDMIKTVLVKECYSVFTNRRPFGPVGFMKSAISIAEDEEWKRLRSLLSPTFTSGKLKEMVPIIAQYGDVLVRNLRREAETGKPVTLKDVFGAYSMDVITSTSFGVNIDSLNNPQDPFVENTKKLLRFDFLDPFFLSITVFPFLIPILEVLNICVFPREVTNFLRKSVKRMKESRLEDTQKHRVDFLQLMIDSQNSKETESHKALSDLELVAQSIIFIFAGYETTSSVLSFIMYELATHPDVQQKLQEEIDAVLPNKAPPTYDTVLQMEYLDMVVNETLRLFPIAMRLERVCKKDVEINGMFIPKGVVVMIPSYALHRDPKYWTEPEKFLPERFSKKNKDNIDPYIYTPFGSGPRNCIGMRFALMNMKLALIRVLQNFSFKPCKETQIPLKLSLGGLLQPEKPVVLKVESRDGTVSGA
Voltage-dependent T-type calcium channel subunit alpha-1H, sequence (O95180 whole entry): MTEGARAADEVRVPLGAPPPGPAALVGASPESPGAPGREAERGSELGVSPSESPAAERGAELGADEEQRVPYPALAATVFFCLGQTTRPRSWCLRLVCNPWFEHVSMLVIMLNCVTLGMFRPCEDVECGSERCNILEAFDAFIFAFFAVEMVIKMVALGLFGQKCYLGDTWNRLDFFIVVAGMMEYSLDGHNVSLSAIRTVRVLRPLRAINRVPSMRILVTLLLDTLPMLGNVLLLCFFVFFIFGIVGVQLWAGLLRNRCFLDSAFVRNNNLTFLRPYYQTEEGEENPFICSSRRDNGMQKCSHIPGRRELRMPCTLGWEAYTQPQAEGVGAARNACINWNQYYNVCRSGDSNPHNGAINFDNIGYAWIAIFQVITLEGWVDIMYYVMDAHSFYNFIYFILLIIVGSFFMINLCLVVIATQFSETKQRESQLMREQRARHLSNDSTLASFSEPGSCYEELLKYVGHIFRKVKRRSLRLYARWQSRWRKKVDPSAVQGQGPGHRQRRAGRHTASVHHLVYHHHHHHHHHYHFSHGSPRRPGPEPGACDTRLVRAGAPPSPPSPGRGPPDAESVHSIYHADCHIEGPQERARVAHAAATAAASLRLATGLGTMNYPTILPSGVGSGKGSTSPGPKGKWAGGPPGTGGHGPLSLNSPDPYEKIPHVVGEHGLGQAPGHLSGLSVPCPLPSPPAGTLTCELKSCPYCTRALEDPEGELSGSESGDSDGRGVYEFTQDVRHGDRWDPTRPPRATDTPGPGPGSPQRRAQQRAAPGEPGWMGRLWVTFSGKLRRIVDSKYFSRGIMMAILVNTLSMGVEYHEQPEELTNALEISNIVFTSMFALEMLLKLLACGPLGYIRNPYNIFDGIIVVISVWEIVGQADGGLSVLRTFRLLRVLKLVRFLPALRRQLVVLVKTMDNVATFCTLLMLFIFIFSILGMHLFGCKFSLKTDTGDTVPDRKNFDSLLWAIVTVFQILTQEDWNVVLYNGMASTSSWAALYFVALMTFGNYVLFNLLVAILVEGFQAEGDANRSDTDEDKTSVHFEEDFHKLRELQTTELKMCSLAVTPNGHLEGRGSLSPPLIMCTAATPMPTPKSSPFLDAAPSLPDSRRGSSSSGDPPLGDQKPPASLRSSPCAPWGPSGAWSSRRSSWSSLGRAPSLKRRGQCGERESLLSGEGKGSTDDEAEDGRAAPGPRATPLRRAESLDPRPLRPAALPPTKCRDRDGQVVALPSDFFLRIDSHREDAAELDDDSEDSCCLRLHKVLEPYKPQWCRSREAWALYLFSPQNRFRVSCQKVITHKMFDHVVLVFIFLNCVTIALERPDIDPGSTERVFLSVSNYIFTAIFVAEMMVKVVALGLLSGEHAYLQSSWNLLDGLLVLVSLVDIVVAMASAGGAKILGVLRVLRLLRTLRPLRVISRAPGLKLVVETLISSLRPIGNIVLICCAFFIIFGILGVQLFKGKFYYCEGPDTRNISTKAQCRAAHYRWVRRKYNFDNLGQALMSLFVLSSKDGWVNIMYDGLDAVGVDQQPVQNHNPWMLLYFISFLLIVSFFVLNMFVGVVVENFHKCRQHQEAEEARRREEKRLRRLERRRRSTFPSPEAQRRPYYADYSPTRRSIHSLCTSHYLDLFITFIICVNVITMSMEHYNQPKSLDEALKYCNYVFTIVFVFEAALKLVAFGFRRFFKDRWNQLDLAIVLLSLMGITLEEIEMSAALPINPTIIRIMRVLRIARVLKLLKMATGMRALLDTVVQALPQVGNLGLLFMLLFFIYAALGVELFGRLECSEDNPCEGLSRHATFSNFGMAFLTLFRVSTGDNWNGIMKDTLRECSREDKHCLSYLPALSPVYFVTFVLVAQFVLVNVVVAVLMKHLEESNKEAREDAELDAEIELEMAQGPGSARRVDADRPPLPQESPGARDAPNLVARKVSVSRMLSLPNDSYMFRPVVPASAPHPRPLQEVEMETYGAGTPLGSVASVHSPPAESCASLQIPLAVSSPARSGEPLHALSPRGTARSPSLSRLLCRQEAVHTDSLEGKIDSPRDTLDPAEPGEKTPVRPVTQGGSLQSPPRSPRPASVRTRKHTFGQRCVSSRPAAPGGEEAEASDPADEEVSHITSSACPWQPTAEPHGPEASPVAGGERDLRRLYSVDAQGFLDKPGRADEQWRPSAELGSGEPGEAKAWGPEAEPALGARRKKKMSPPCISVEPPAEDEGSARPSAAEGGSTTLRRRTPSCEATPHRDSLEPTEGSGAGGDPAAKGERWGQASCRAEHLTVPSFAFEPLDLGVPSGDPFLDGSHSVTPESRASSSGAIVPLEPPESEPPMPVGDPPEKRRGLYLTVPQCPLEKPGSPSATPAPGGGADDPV

As a reminder, the EC50 is the concentration that produces a half-maximal response. For `O=C(CN1C2=NCCN2c2ccccc21)c1ccc2c(c1)OCO2`, the EC50 in [1] was > 50 µM (active).

By IC50 is commonly meant the concentration at which inhibition is half-maximal. As to `COc1ccc(/C=C2\C(=O)NCC(=O)N2C)cc1`, the IC50 is > 100 µM (inactive) in [2], 6.16 µM (active) in assay [3], 2.81 µM (active) in assay [4] and 6.99 µM (active) in assay [5].

What is called AC50 is the concentration at which the activity in the assay is half-maximal. Regarding `COc1cc(CN2CCN(c3cccc(Cl)c3)CC2)cc(OC)c1OC`, the concentration for a half-maximal effect (EC50) is 6.14 µM (active) in assay [6] and 5.95 µM (active) in assay [7]. The half-maximal activity concentration (AC50) in assay [8] was 1.45 µM (active).

Consider `CSc1n[nH]c(NC(C)=O)n1`, for which the half-maximal inhibitory concentration (IC50) in [9] is > 10 µM (inconclusive); in assay [10], > 10 µM (inactive).

Turning to `N#Cc1c(NC(=O)CSc2n[nH]c(Cc3ccccc3)n2)oc(-c2ccccc2)c1-c1ccccc1`, the half-maximal effective concentration (EC50) in assay [11] was 4.97 µM (active); in assay [6], 4.13 µM (active); in assay [7], 5.24 µM (active); in the assay on Streptococcus it was 36.5 µM (active).

Regarding `CC(CCc1ccccc1)NC(=O)CN1CCN(Cc2ccc(Cl)cc2)C1=O` (configuration not stated), in [12], the half-maximal effective concentration (EC50) was 4.5 µM (active).

For `O=C(O)C1CC=CCC1C(=O)Nc1ccc(Oc2ccc(Cl)cc2)cc1` (configuration not stated), the IC50 was 1.02 µM (active) on Leucine aminopeptidase, > 73.5 µM (not active) on Aspartyl aminopeptidase and > 59.6 µM (not active) against Procathepsin L.

`O=C(O)CCCCCNC(=O)Nc1ccc2c(c1)OCCO2`: the values for the half-inhibitory concentration (IC50) at Leucine aminopeptidase, against Aspartyl aminopeptidase and at Procathepsin L were 5.51 µM (active), > 73.5 µM (not active) and > 59.6 µM (not active), respectively.

Turning to `COc1cc(/C=C/c2cccc[n+]2C)ccc1OCC(=O)Nc1ccccc1C`, the IC50 in assay [2] is > 100 µM (inactive); in assay [3], 3.83 µM (active); in [4], 1.56 µM (active); in assay [5] it was 1.29 µM (active).

Take `O=C(NCc1ccc2c(c1)OCO2)c1ccc(CN2CCc3ccccc3C2)cc1`: in assay [12], the 50% effective concentration (EC50) was 7.5 µM (active).

For the molecule `O=S(=O)(Nc1ccncn1)c1cc(Cl)ccc1F`, the 50% inhibitory concentration (IC50) is > 100 µM (not active) in assay [9] and > 100 µM (inactive) in assay [10].

`CCCC(=O)N1CCN(c2ccc(NC(=S)NC(=O)c3cccc(C)c3)cc2)CC1`: the concentration giving a half-maximal response (EC50) in assay [1] was > 50 µM (active).

As for `COc1ccccc1NC(=O)c1cc[n+](C)cc1`, the half-maximal inhibitory concentration (IC50) is 90.8 µM (active) in assay [2], 5.63 µM (active) in [3], 2.48 µM (active) in assay [4] and 2.3 µM (active) in assay [5].

As for `CC(=O)OCC1OC(C#Cc2ccc(Br)cc2)C=CC1OC(C)=O` (configuration not stated), at Cytochrome P450 3A4, the AC50 was 3.16 µM (inconclusive).

Regarding `CCOC(=O)Cc1csc(NC(=O)c2ccc(S(=O)(=O)N3CCCC3)cc2)n1`, the EC50 in assay [1] is > 50 µM (active).

As for `COc1ccccc1-c1nnc(SCc2ccc(C(=O)O)cc2)[nH]1`, the values for the IC50 in assay [9], in assay [13] and in assay [10] were > 100 µM (not active), > 100 µM (inactive) and 16.3 µM (active), respectively.

Regarding `COC(=O)c1c(NC(=O)C2CCCCC2C(=O)O)sc2c1CCCCC2` (configuration not stated), the figures for the IC50 at Leucine aminopeptidase, at Aspartyl aminopeptidase and on Procathepsin L were 1.49 µM (active), > 73.5 µM (not active) and > 59.6 µM (not active), respectively.

`CCCCCCCC(=O)N/N=C/c1ccc([N+](=O)[O-])o1`: the EC50 in [14] was > 160 µM (inactive); in [1], > 50 µM (active); in assay [15], 2.88 µM (active). Moreover, the IC50 in “cells” is 2.63 µM (active).

`O=c1c(-c2cc(O)c(O)c(O)c2)coc2cc(O)c(O)c(O)c12` [IRIGENOL]: the concentration at half-maximal activity (AC50) on Cytochrome P450 3A4 was 25.1 µM (inconclusive).

For `CC1=C(C(=O)OCc2ccccc2)C(c2ccccc2)NC(=O)N1CCCCCC(=O)O` (configuration not stated), the figures for the half-inhibitory concentration (IC50) in assay [2] and in assay [3] were 78.5 µM (active) and 29.9 µM (active), respectively. Moreover, the AC50 at Cytochrome P450 2C19 is 39.8 µM (inconclusive); at Cytochrome P450 2D6, 39.8 µM (inconclusive); at Cytochrome P450 2C9, 25.1 µM (inconclusive).

With `Cc1cc(C)c(N)cc1C`, the AC50 at Cytochrome P450 3A4 was 39.8 µM (inconclusive).

The record behind these values is ChEMBL document CHEMBL1201862, “PubChem BioAssay data set” (2004).
